Test systems include 786-0 renal; A498 renal; HOP-92 NSCLC; K-562 leukemia; KM12 colon; SF-268 CNS; SK-MEL-28 melanoma; SK-OV-3 ovarian; U251 CNS; UACC-62 melanoma.
Holding throughout (assay): NCI anticancer screen, dose series, 48 h

The structures appear in SMILES notation.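 Results reflect a 48-hour exposure of cells in 96-well plates to compound at five concentrations. GI50: concentration for 50% inhibition of growth. At the TGI there is no net growth.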

Consider `N#CC[C@H](C1CCCC1)n1cc(-c2ncnc3[nH]ccc23)cn1`, for which the GI50 was 12.9 µM in the experiment with 786-0 renal; 13.3 µM in the experiment on A498 renal; 6.81 µM with HOP-92 NSCLC; 22.2 µM in the experiment with K-562 leukemia; 2.71 µM with KM12 colon; 16.8 µM in the experiment on SF-268 CNS. Besides, the GI50 is 31.8 µM with SK-MEL-28 melanoma, 24.7 µM in the experiment with SK-OV-3 ovarian, 32.5 µM with U251 CNS and 37 µM in the experiment with UACC-62 melanoma. The TGI is greater than 91.3 µM in the experiment with 786-0 renal; 53.8 µM with A498 renal; greater than 100 µM with HOP-92 NSCLC; greater than 100 µM in the experiment with K-562 leukemia; greater than 62.6 µM in the experiment with KM12 colon; greater than 77.9 µM with SF-268 CNS. Moreover, the TGI in the experiment with SK-MEL-28 melanoma was greater than 100 µM; with SK-OV-3 ovarian, greater than 88 µM; in the experiment on U251 CNS, greater than 100 µM; with UACC-62 melanoma, greater than 100 µM.

As to `CNCCOc1nc2c3cnccc3cc(-c3cc(OC)c(OC)c(OC)c3)c2c2ccncc12`, the GI50 in the experiment with 786-0 renal is 0.0194 µM; in the experiment with A498 renal, 0.0478 µM; with HOP-92 NSCLC it was 0.0168 µM; in the experiment on K-562 leukemia, 0.0294 µM; with KM12 colon it was 0.0536 µM; in the experiment on SF-268 CNS, 0.033 µM. The GI50 with SK-MEL-28 melanoma is 0.125 µM; with SK-OV-3 ovarian it was 0.0323 µM; with U251 CNS, 0.0241 µM; with UACC-62 melanoma it was 0.027 µM. Also, the TGI in the experiment with 786-0 renal turned out to be 0.175 µM; in the experiment on A498 renal, 0.163 µM; with HOP-92 NSCLC, 0.1 µM; with K-562 leukemia, 10.1 µM; in the experiment with KM12 colon it was 2.52 µM; in the experiment on SF-268 CNS, 0.623 µM. The TGI turned out to be 0.525 µM in the experiment with SK-MEL-28 melanoma, 0.185 µM in the experiment on SK-OV-3 ovarian, 0.523 µM in the experiment with U251 CNS and 0.169 µM in the experiment with UACC-62 melanoma.

Turning to `NC(=O)NC(=O)C1CCCCC1C(=O)O` (stereo not drawn), the TGI in the experiment on 786-0 renal, with A498 renal, in the experiment with HOP-92 NSCLC, in the experiment with K-562 leukemia, with KM12 colon and in the experiment with SF-268 CNS was greater than 100 µM in each case. Further, the TGI with SK-MEL-28 melanoma, in the experiment on SK-OV-3 ovarian, in the experiment with U251 CNS and with UACC-62 melanoma was greater than 100 µM each time.

With `COC(=O)Nc1nc2ccc(Sc3ccccc3)cc2[nH]1`, the GI50 in the experiment with 786-0 renal is 0.323 µM; in the experiment with A498 renal, 0.14 µM; with HOP-92 NSCLC it was 0.177 µM; in the experiment on K-562 leukemia it was 0.0482 µM; with KM12 colon, 0.0634 µM; in the experiment with SF-268 CNS, 1.44 µM. Further, the GI50 with SK-MEL-28 melanoma is 0.387 µM; in the experiment on SK-OV-3 ovarian, 0.179 µM; in the experiment on U251 CNS it was 0.168 µM; in the experiment on UACC-62 melanoma, 0.405 µM. Moreover, the TGI in the experiment with 786-0 renal was determined as 14.6 µM; in the experiment on A498 renal, 6.4 µM; in the experiment on HOP-92 NSCLC it was 7 µM; in the experiment with KM12 colon it was 22.3 µM; with SF-268 CNS, 26.9 µM; with SK-MEL-28 melanoma it was 15.5 µM. In addition, the results for the TGI in the experiment on SK-OV-3 ovarian, with U251 CNS and in the experiment with UACC-62 melanoma were 0.684 µM, 4.37 µM and 23.9 µM, respectively.

As to `Cc1cc2nc3c4ccccc4n(CCN(C)C)c3nc2cc1C`, the GI50 in the experiment with 786-0 renal was 1.97 µM; in the experiment with A498 renal, 1.43 µM; in the experiment with HOP-92 NSCLC, 1.36 µM; in the experiment with K-562 leukemia, 1.55 µM; in the experiment with KM12 colon, 1.93 µM; with SF-268 CNS, 1.45 µM. The GI50 was 2.09 µM with SK-MEL-28 melanoma, 3.1 µM with SK-OV-3 ovarian, 2.01 µM in the experiment on U251 CNS and 1.43 µM in the experiment on UACC-62 melanoma. In addition, the TGI was 12.2 µM with 786-0 renal; 2.86 µM in the experiment with A498 renal; 8.85 µM with HOP-92 NSCLC; 10.7 µM in the experiment on K-562 leukemia; 9.8 µM with KM12 colon; 5.86 µM in the experiment on SF-268 CNS. For the same molecule, the TGI with SK-MEL-28 melanoma was found to be 4.73 µM; with SK-OV-3 ovarian, 20.2 µM; in the experiment on U251 CNS, 11.3 µM; in the experiment on UACC-62 melanoma, 2.82 µM.

`O=C1c2ccccc2C(=O)c2sc(Nc3ccc(Cl)c(Cl)c3)nc21`: the TGI came to 3.59 µM with 786-0 renal; 31.6 µM with A498 renal; 28 µM in the experiment on HOP-92 NSCLC; 17.9 µM with K-562 leukemia; 18 µM with KM12 colon; 12.8 µM with SF-268 CNS. The TGI was determined as 20.7 µM in the experiment with SK-MEL-28 melanoma, 32.1 µM in the experiment with SK-OV-3 ovarian, 6.05 µM in the experiment on U251 CNS and 7.94 µM in the experiment on UACC-62 melanoma.

As for `CCN(CC)c1ccc2nc3c4ccccc4c(=NC(=O)c4ccccc4-c4c5ccc(N(CC)CC)cc5[o+]c5cc(N(CC)CC)ccc45)cc-3oc2c1`, the GI50 with 786-0 renal was 2.41 µM; with A498 renal, 6.15 µM; with HOP-92 NSCLC it was 3.51 µM; in the experiment with KM12 colon, 2.25 µM; in the experiment with SF-268 CNS, 4.69 µM; in the experiment with SK-MEL-28 melanoma, 5.06 µM. Also, the GI50 in the experiment with SK-OV-3 ovarian is 12.3 µM; in the experiment with U251 CNS it was 2.33 µM; with UACC-62 melanoma, 5.73 µM. The TGI in the experiment with 786-0 renal is 6.68 µM; in the experiment on A498 renal, 23.5 µM; in the experiment on HOP-92 NSCLC it was 19.4 µM; in the experiment on K-562 leukemia, greater than 100 µM; in the experiment with KM12 colon, 7.94 µM; with SF-268 CNS, 19.4 µM. Also, the TGI with SK-MEL-28 melanoma is 12.4 µM; with SK-OV-3 ovarian, 26.6 µM; in the experiment on U251 CNS, 8.83 µM; in the experiment with UACC-62 melanoma it was 17.9 µM.

With `O=[N+]([O-])c1ccc(-c2ccccc2)c([As](=O)(O)O)c1`, the GI50 in the experiment with 786-0 renal is 17.7 µM; with A498 renal it was 16.5 µM; in the experiment on HOP-92 NSCLC, 13.5 µM; in the experiment on K-562 leukemia it was 4.89 µM; in the experiment on KM12 colon it was 39.4 µM; in the experiment on SF-268 CNS, 9.85 µM. For the same molecule, the GI50 in the experiment on SK-MEL-28 melanoma is 18 µM; in the experiment with SK-OV-3 ovarian, 24.2 µM; in the experiment with U251 CNS, 3.08 µM; in the experiment with UACC-62 melanoma, 22.5 µM. The TGI with 786-0 renal is 36.4 µM; in the experiment on A498 renal, 67 µM; in the experiment on HOP-92 NSCLC, 95.4 µM; in the experiment with K-562 leukemia it was greater than 100 µM; in the experiment on KM12 colon, greater than 100 µM; in the experiment with SF-268 CNS, 39.2 µM. Besides, the TGI is 50.3 µM in the experiment with SK-MEL-28 melanoma, 91.5 µM in the experiment with SK-OV-3 ovarian, 23.9 µM with U251 CNS and greater than 100 µM in the experiment with UACC-62 melanoma.

For the molecule `C[N+]1=c2c3cccc4cccc(c(=O)n2CCC1)c43`, the TGI with 786-0 renal was greater than 100 µM; in the experiment on A498 renal, 36.5 µM; in the experiment on HOP-92 NSCLC, 93.3 µM; with K-562 leukemia, 32 µM; in the experiment with KM12 colon, greater than 100 µM; in the experiment with SF-268 CNS, 60.2 µM. The TGI in the experiment on SK-MEL-28 melanoma is 39.6 µM; with SK-OV-3 ovarian it was 80.1 µM; with U251 CNS it was greater than 100 µM; with UACC-62 melanoma, 34.1 µM.

These data come from PubChem BioAssay (NCI).
